Structures are written as SMILES.

For this test, the target named is T1, IRAK4 (Interleukin 1 Receptor Associated Kinase 4) (Homo sapiens, UniProt Q9NWZ3).
T1 construct: the IRAK4 gene was modified, using CRISPR/Cas9 editing, so the expressed IRAK4 protein included an 11 amino acid HiBiT tag; endogenous in cells; host or cells: clonal HeLa line, IRAK4 gene edited by CRISPR/Cas9 (heterozygous)
T1 sequence (Q9NWZ3 1-460): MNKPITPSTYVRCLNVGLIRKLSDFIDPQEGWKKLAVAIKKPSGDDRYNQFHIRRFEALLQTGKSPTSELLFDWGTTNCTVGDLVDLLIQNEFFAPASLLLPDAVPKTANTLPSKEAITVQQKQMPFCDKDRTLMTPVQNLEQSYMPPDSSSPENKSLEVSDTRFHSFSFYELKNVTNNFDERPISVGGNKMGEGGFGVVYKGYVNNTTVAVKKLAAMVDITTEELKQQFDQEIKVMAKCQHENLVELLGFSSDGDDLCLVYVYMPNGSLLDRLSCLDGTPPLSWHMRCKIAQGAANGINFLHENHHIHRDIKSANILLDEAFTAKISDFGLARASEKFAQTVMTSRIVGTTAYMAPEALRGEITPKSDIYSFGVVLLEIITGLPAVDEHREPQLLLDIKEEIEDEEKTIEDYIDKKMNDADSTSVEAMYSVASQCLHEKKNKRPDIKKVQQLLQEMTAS
Nature of the test: IRAK4 Degradation Assay (Nano-Glo HiBiT). Particulars: HiBiT-tagged IRAK4 in HeLa cells, 18 h. The class given is cell-based. From the text: Degradation of IRAK4 (Interleukin 1 Receptor Associated Kinase 4) protein in Hela cells treated with PROTACs was quantified using the Nano-Glo® HiBiT Lytic Detection System (Promega) in 384 well assay plate format. A clonal HeLa cell line was first established in which the IRAK4 gene was modified, using CRISPR/Cas9 editing, so the expressed IRAK4 protein included an 11 amino acid HiBiT tag at it's amino-terminus. The cell lines were heterozygotic for the HiBiT modification. Cells were cryopreserved in aliquots in 90% foetal bovine serum (FBS), 10% DMSO and stored at −150° C. 10 mM DMSO stock solutions of PROTACs were prepared and diluted across an 11 concentration, 3 fold increment range, and 25 nL dispensed into a white opaque bottomed 384 well assay plate (Thermofisher) using an acoustic ECHO dispenser (Labcyte). […] The intensity of luminescence was measured using a PHERAstar microplate reader (BMG Labtech) and the % IRAK4 protein remaining in each well calculated by normalising the raw luminescence value to the above control wells. Parameters corresponding to the potency and efficacy estimates of the PROTACs were obtained from these normalised luminescence values using software (IDBS ActivityBase). […]
For orientation: HiBiT is a short tag that completes a luciferase, so light tracks the accessible tagged protein.

For the compound `CC(C)n1ccc2c(N3CCC(=O)NC3=O)cc(C(=O)NCCOCCOCCN(C)C(=O)c3ccc(-n4cc(NC(=O)c5coc(-c6ccnc(NCC7CC7)c6)n5)c(C(F)F)n4)cc3)cc21` [Example I1, 2-(2-((Cyclopropylmethyl)amino)pyridin-4-yl)-N-(3-(difluoromethyl)-1-(4-((2-(2-(2-(4-(2,4-dioxotetrahydropyrimidin-1(2H)-yl)-1-isopropyl-1H-indole-6-carboxamido)ethoxy)ethoxy)ethyl)(methyl)carbamoyl)phenyl)-1H-pyrazol-4-yl)oxazole-4-carboxamide], the mean asymptote max turned out to be 96% and the “mean relative pDC50” value came to 8.1.

(Values after patent US20250205344A1, “2,4-DIOXOTETRAHYDROPYRIMIDINYL DERATIVES AS DEGRONS IN PROTACS” (GLAXOSMITHKLINE INTELLECTUAL PROPERTY DEVELOPMENT LIMITED, priority 2022, published 2025).)
